Measurements: the NIST ThermoML archive (doi:10.1016/j.jct.2016.09.030)

Assay: refractive index (Na D-line) (dimensionless); xn = mol fraction of the nth substance listed
Conditions: 100 kPa, Liquid, Standard Abbe refractometry

CCOC(=O)CCC(=O)OCC [diethyl butanedioate] + CC(C)CCO
refractive index
Conditions | x1 = 0.1 | x1 = 0.2 | x1 = 0.3 | x1 = 0.3999 | x1 = 0.5 | x1 = 0.5999 | x1 = 0.7 | x1 = 0.7999 | x1 = 0.9002 | x1 = 1
288.15 K | 1.41 | 1.4114 | 1.4129 | 1.4144 | 1.4158 | 1.4172 | 1.4184 | 1.4197 | 1.4208 | 1.4217
293.15 K | 1.4079 | 1.4093 | 1.4108 | 1.4123 | 1.4136 | 1.415 | 1.4163 | 1.4175 | 1.4186 | 1.4195
298.15 K | 1.4058 | 1.4072 | 1.4087 | 1.4101 | 1.4115 | 1.4128 | 1.414 | 1.4153 | 1.4164 | 1.4173
303.15 K | 1.4037 | 1.4051 | 1.4065 | 1.4079 | 1.4093 | 1.4106 | 1.4119 | 1.4131 | 1.4142 | 1.4151
308.15 K | 1.4016 | 1.4029 | 1.4043 | 1.4057 | 1.4071 | 1.4084 | 1.4096 | 1.4108 | 1.412 | 1.4129
313.15 K | 1.3996 | 1.4008 | 1.4022 | 1.4036 | 1.4049 | 1.4062 | 1.4075 | 1.4087 | 1.4098 | 1.4108
318.15 K | 1.3975 | 1.3988 | 1.4001 | 1.4014 | 1.4028 | 1.4041 | 1.4054 | 1.4066 | 1.4077 | 1.4088
323.15 K | 1.3954 | 1.3966 | 1.398 | 1.3993 | 1.4006 | 1.4019 | 1.4032 | 1.4045 | 1.4056 | 1.4067

CCOC(=O)CCC(=O)OCC [diethyl butanedioate] + CC(C)CO
refractive index
Conditions | x1 = 0.0999 | x1 = 0.2 | x1 = 0.3001 | x1 = 0.4 | x1 = 0.4999 | x1 = 0.5999 | x1 = 0.6999 | x1 = 0.8 | x1 = 0.9 | x1 = 1
288.15 K | 1.4016 | 1.4047 | 1.4076 | 1.4103 | 1.4127 | 1.4148 | 1.4168 | 1.4186 | 1.4203 | 1.4217
293.15 K | 1.3995 | 1.4025 | 1.4055 | 1.4081 | 1.4105 | 1.4127 | 1.4146 | 1.4164 | 1.4181 | 1.4195
298.15 K | 1.3974 | 1.4004 | 1.4033 | 1.4059 | 1.4083 | 1.4104 | 1.4124 | 1.4142 | 1.4159 | 1.4173
303.15 K | 1.3952 | 1.3982 | 1.4011 | 1.4037 | 1.4061 | 1.4082 | 1.4102 | 1.412 | 1.4137 | 1.4151
308.15 K | 1.3929 | 1.396 | 1.3989 | 1.4015 | 1.4038 | 1.406 | 1.408 | 1.4098 | 1.4115 | 1.4129
313.15 K | 1.3908 | 1.3938 | 1.3966 | 1.3992 | 1.4016 | 1.4037 | 1.4058 | 1.4076 | 1.4093 | 1.4108
318.15 K | 1.3886 | 1.3916 | 1.3943 | 1.397 | 1.3993 | 1.4015 | 1.4036 | 1.4054 | 1.4071 | 1.4088
323.15 K | 1.3863 | 1.3894 | 1.3921 | 1.3947 | 1.3971 | 1.3993 | 1.4013 | 1.4032 | 1.405 | 1.4067

CCCCCCCC(=O)OCC [ethyl octanoate] + CC(C)CCO
refractive index
Conditions | x1 = 0.1 | x1 = 0.2001 | x1 = 0.3 | x1 = 0.4 | x1 = 0.5001 | x1 = 0.5999 | x1 = 0.7003 | x1 = 0.7998 | x1 = 0.9001 | x1 = 1
288.15 K | 1.4104 | 1.412 | 1.4134 | 1.4146 | 1.4156 | 1.4166 | 1.4175 | 1.4183 | 1.4191 | 1.4199
293.15 K | 1.4083 | 1.4099 | 1.4112 | 1.4124 | 1.4135 | 1.4144 | 1.4153 | 1.4161 | 1.4169 | 1.4177
298.15 K | 1.4063 | 1.4078 | 1.4091 | 1.4102 | 1.4113 | 1.4122 | 1.4131 | 1.4139 | 1.4147 | 1.4155
303.15 K | 1.4042 | 1.4056 | 1.4069 | 1.4081 | 1.4091 | 1.41 | 1.4109 | 1.4116 | 1.4125 | 1.4132
308.15 K | 1.4021 | 1.4035 | 1.4047 | 1.4059 | 1.4069 | 1.4078 | 1.4087 | 1.4094 | 1.4102 | 1.411
313.15 K | 1.3999 | 1.4013 | 1.4026 | 1.4037 | 1.4047 | 1.4056 | 1.4064 | 1.4072 | 1.408 | 1.4088
318.15 K | 1.3978 | 1.3992 | 1.4004 | 1.4015 | 1.4024 | 1.4034 | 1.4042 | 1.405 | 1.4058 | 1.4066
323.15 K | 1.3957 | 1.397 | 1.3982 | 1.3993 | 1.4003 | 1.4012 | 1.402 | 1.4027 | 1.4036 | 1.4044

CCCCCCCC(=O)OCC [ethyl octanoate] + CC(C)CO
refractive index
Conditions | x1 = 0.1001 | x1 = 0.1999 | x1 = 0.3 | x1 = 0.4 | x1 = 0.5 | x1 = 0.5999 | x1 = 0.6999 | x1 = 0.7999 | x1 = 0.9 | x1 = 1
288.15 K | 1.4018 | 1.4052 | 1.408 | 1.4102 | 1.4123 | 1.4142 | 1.4158 | 1.4173 | 1.4186 | 1.4199
293.15 K | 1.3997 | 1.403 | 1.4058 | 1.408 | 1.4101 | 1.412 | 1.4136 | 1.4151 | 1.4164 | 1.4177
298.15 K | 1.3976 | 1.4009 | 1.4036 | 1.4058 | 1.4079 | 1.4097 | 1.4114 | 1.4128 | 1.4142 | 1.4155
303.15 K | 1.3955 | 1.3987 | 1.4014 | 1.4036 | 1.4056 | 1.4075 | 1.4091 | 1.4106 | 1.4119 | 1.4132
308.15 K | 1.3933 | 1.3965 | 1.3992 | 1.4014 | 1.4034 | 1.4052 | 1.4069 | 1.4084 | 1.4097 | 1.411
313.15 K | 1.3911 | 1.3942 | 1.3969 | 1.3991 | 1.4012 | 1.403 | 1.4046 | 1.4061 | 1.4075 | 1.4088
318.15 K | 1.3889 | 1.392 | 1.3947 | 1.3968 | 1.3989 | 1.4007 | 1.4024 | 1.4039 | 1.4052 | 1.4066
323.15 K | 1.3867 | 1.3898 | 1.3925 | 1.3946 | 1.3967 | 1.3985 | 1.4001 | 1.4017 | 1.403 | 1.4044
